Data taken from paper PMC8538004, “Identification of a Novel Neuropeptide S Receptor Antagonist Scaffold Based on the SHA-68 Core” (Pharmaceuticals, 2021).

What was measured:
NPSR = test system: NPSR; design: method as in PMID 24964000, PMID 20615693, PMID 18337476, PMID 24171469, PMID 20510609; details: Figure 1, known NPSR antagonists; cited from earlier work
human NPSR-107I = target: T1, human NPSR-107I (Homo sapiens, UniProt Q6W5P4, N107I); experiment: Ca+2 mobilization assay (apparent Ke against NPS); format: cell-based; details: for Kb: Calcium Mobilization, CHO-Gα16-hNPSR-107I cells, shift of NPS EC50; for Loss of antagonist activity compared to SHA: compared with SHA-66 (Ke = 10 nM); for NPSR antagonist activity in words: calcium mobilization, SAR discussion
T1 construct: expressed in transfected cells
T1 sequence (Q6W5P4 1-371 N107I): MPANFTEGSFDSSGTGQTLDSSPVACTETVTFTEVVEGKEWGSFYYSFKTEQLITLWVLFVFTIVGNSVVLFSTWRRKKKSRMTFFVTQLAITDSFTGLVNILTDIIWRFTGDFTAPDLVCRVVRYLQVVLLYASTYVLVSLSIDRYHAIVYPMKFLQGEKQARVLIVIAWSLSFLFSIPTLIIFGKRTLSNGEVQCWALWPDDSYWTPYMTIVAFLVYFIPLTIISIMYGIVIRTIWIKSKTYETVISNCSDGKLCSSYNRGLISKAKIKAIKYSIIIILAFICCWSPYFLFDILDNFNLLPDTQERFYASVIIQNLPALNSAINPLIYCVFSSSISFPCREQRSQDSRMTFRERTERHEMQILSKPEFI
Experimental: A stable cell line overexpressing the human NPSR-107I was created in CHO-Gαq16 cells (RD-HGA16, Molecular Devices), as previously described. Briefly, CHO-Gαq16 cells were transfected with pcDNA 3.1 human NPSR-107I using Lipofectamine reagent. Transfected cells were plated into 10 cm^2 dishes 24 h post-transfection and were selected using Geneticin. After 2 weeks, individual clones were selected, grown to confluence, and screened in a functional 96-well calcium mobilization assay that measured the response to NPS (100 nM final). […] A final working clone was chosen for all subsequent studies based on NPS potency and the calcium mobilization signal window. CHO-Gα16-hNPSR-107I cells were cultured in Ham’s F12 media supplemented with 10% FBS, 100 units/mL penicillin, 100 μg/mL streptomycin, 200 μg/mL hygromycin, and 400 μg/mL geneticin. Media were purchased from HyClone (GE Life Sciences); FBS, penicillin/streptomycin, hygromycin, and geneticin were purchased from Invitrogen (Thermo Scientific). The day before the assay, cells were plated into 96-well black-walled assay plates at 25,000–40,000 cells/well in growth medium without selection antibiotics. Cells were incubated overnight at 37 °C, 5% CO2. The FLIPR Calcium 5 assay kit (Molecular Devices) was used according to the manufacturer’s instructions with minor modifications. Briefly, reconstituted dye was diluted in pre-warmed assay buffer (HBSS, 20 mM HEPES, 2.5 mM probenecid, pH 7.4 at 37 °C). Growth medium was removed, and the cells were gently washed with assay buffer. Calcium 5 dye was added to the cells and the plate was incubated for 45 min at 37 °C, 5% CO2. A single concentration of test compound and 10-point concentration–response curves of NPS (ranging from 100 nM to 1 pM) were prepared at 10× the desired final concentration. Cells were pretreated with the test compound or vehicle in a final concentration of 0.25% BSA/1% DMSO for 15 min at 37 °C. Assay plates were read with a FlexStation II instrument (excitation at 485 nm, detection at 525 nm, Molecular Devices). Calcium-mediated changes in fluorescence were monitored every 1.5 s over a 90 s time period. NPS was added during the read and the maximum kinetic […] (SoftMax [Max-Min], Molecular Devices) in relative fluorescent units (RFU) was measured. Data were fitted to a three-parameter logistic curve to generate EC50 values (GraphPad Prism 6.0). Antagonism was quantified by measuring the ratio of equi-active concentrations of agonist measured in the presence or absence of the antagonist. Apparent Ke values were calculated using the equation Ke = [L]/((EC50^+/EC50^−) − 1), where [L] is the concentration of test compound, EC50^+ is the EC50 of NPS with test compound, and EC50^– is the EC50 of NPS alone. Ke values were considered valid when the EC50^+/EC50^− ratio was at least 4. HBSS and HEPES were purchased from Gibco (Thermo Scientific); probenecid, BSA, and DMSO were purchased from Sigma-Aldrich.

Structure (SMILES)	Kb (human NPSR-107I) [nM]	also measured
CCC(C)(CCN1CCOCC1)N(Cc1cc2ccccc2n(C)c1=O)C(=O)C1CCCCC1 (centres unmarked) [A]		IC50 (NPSR): 23 nM
COc1ccc2c(c1)C(CC1CCOCC1)(c1ccc(Cl)cc1)n1ccnc1-2 (centres unmarked) [B]		IC50 (NPSR): 82 nM
O=C(c1ccccc1N1Cn2c(ccc2-c2ccccc2)C1=O)N1CCCCC1 [C]		IC50 (NPSR): 10 nM
O=C1OC(c2ccccc2)(c2ccccc2)[C@H]2CN(C(=O)NCc3ccccc3)CC[C@@H]12 [Compound 3, (3,7)-N-Benzyl-1-oxo-3,3-diphenyl-octahydrofuro[3,4-c]pyridine-5-carboxamide]	761	NPSR antagonist activity in words (human NPSR-107I): lacked antagonist activity
CCCCNC(=O)N1CC[C@H]2C(=O)OC(c3ccccc3)(c3ccccc3)[C@H]2C1 [Compound 4, (3,7)-N-Butyl-1-oxo-3,3-diphenyl-octahydrofuro[3,4-c]pyridine-5-carboxamide]		NPSR antagonist activity in words (human NPSR-107I): lacked antagonist activity
O=C1OC(c2ccccc2)(c2ccccc2)[C@@H]2CN(C(=O)NCc3ccccc3)CC[C@@H]12 [Compound 5, (3,7)-N-Benzyl-1-oxo-3,3-diphenyl-octahydrofuro[3,4-c]pyridine-5-carboxamide]	170	
CCCCNC(=O)N1CC[C@H]2C(=O)OC(c3ccccc3)(c3ccccc3)[C@@H]2C1 [Compound 6, (3,7)-N-Butyl-1-oxo-3,3-diphenyl-octahydrofuro[3,4-c]pyridine-5-carboxamide]	260	
CC(C)CC1(c2ccccc2)OC(=O)C2=C1CN(C(=O)NCCN1CCCCC1)CC2 (centres unmarked) [Compound 27, 3-(2-Methylpropyl)-1-oxo-3-phenyl-N-[2-(piperidin-1-yl)Ethyl]-1H,3H,4H,5H,6H,7H-furo[3,4-c]pyridine-5-carboxamide]	566	NPSR antagonist activity in words (human NPSR-107I): reduction in potency
CC(C)CC1(c2ccccc2)OC(=O)C2=C1CN(C(=S)NCCN1CCCCC1)CC2 (centres unmarked) [Compound 28, 3-(2-Methylpropyl)-1-oxo-3-phenyl-N-[2-(piperidin-1-yl)ethyl]-1H,3H,4H,5H,6H,7H-furo[3,4-c]pyridine-5-carbothioamide]	386	NPSR antagonist activity in words (human NPSR-107I): reduction in potency
CC(C)CC1(c2ccccc2)OC(=O)N2CCN(C(=O)NCc3ccccc3)CC21 (centres unmarked) [Compound 29, N-Benzyl-3-(2-methylpropyl)-1-oxo-3-phenyl-hexahydro-1H-[1,3]oxazolo[3,4-a]piperazine-5-carboxamide]		NPSR antagonist activity in words (human NPSR-107I): completely inactive
Cc1c(P(=S)(c2ccccc2)c2ccccc2)n2ccccc2[n+]1C/C=C/c1ccccc1 [D]		IC50 (NPSR): 9.6 nM
O=C(NCCN1CCCCC1)N1CCN2C(=O)OC(c3ccccc3)(c3ccccc3)[C@H]2C1 [RTI-118]		Ke (NPSR): 36 nM
O=C(NCc1ccccc1)N1CCN2C(=O)OC(c3ccccc3)(c3ccccc3)C2C1 (centres unmarked) [SHA-66]		Ke (NPSR): 10 nM

Further lines, with some results ahead:

Kb (human NPSR-107I) [nM]	Structure (SMILES)	also measured
522	O=C1OC(c2ccccc2)(c2ccccc2)C2=C1CCN(C(=O)NCc1ccccc1)C2 [Compound 1, N-Benzyl-1-oxo-3,3-diphenyl-1H,3H,4H,5H,6H,7H-furo[3,4-c]pyridine-5-carboxamide]	Loss of antagonist activity compared to SHA (human NPSR-107I): roughly 50 fold
515	CCCCNC(=O)N1CCC2=C(C1)C(c1ccccc1)(c1ccccc1)OC2=O [Compound 2, N-Butyl-1-oxo-3,3-diphenyl-1H,3H,4H,5H,6H,7H-furo[3,4-c]pyridine-5-carboxamide]	Loss of antagonist activity compared to SHA (human NPSR-107I): roughly 50 fold
1130	O=C1OC(c2ccccc2)(c2ccccc2)C2=C1CN(C(=O)NCc1ccccc1)CC2 [Compound 7, N-Benzyl-3-oxo-1,1-diphenyl-1H,3H,4H,5H,6H,7H-furo[3,4-c]pyridine-5-carboxamide]	NPSR antagonist activity in words (human NPSR-107I): significant loss of potency
1660	O=C1OC2(C3=C1CCN(C(=O)NCc1ccccc1)C3)c1ccccc1CCc1ccccc12 [Compound 9, N-Benzyl-3-oxo-4,5,6,7-tetrahydro-3H-spiro[furo[3,4-c]pyridine-1,2′-tricyclo[9.4.0.0^{3,8}]pentadecane]-1′(11′),3′,5′,7′,12′,14′-hexaene-6-carboxamide]	
165	CCCCC1(c2ccccc2)OC(=O)C2=C1CN(C(=O)NCc1ccccc1)CC2 (centres unmarked) [Compound 11, N-Benzyl-3-butyl-1-oxo-3-phenyl-1H,3H,4H,5H,6H,7H-furo[3,4-c]pyridine-5-carboxamide]	
606	O=C1OC(Cc2ccccc2)(c2ccccc2)C2=C1CCN(C(=O)NCc1ccccc1)C2 (centres unmarked) [Compound 12, N-3-Dibenzyl-1-oxo-3-phenyl-1H,3H,4H,5H,6H,7H-furo[3,4-c]pyridine-5-carboxamide]	
146	CC(C)(C)CC1(c2ccccc2)OC(=O)C2=C1CN(C(=O)NCc1ccccc1)CC2 (centres unmarked) [Compound 13, N-Benzyl-3-(2,2-dimethylpropyl)-1-oxo-3-phenyl-1H,3H,4H,5H,6H,7H-furo[3,4-c]pyridine-5-carboxamide]	
118	CC(C)CC1(c2ccccc2)OC(=O)C2=C1CN(C(=O)NCc1ccccc1)CC2 (centres unmarked) [Compound 14, N-Benzyl-3-(2-methylpropyl)-1-oxo-3-phenyl-1H,3H,4H,5H,6H,7H-furo[3,4-c]pyridine-5-carboxamide]	
432	CC(C)CC1(c2ccccc2)OC(=O)C2=C1CN(C(=O)NCc1ccccc1)CC2 (centres unmarked) [Compound 14a, N-Benzyl-3-(2-methylpropyl)-1-oxo-3-phenyl-1H,3H,4H,5H,6H,7H-furo[3,4-c]pyridine-5-carboxamide]	
734	CC(C)CC1(CC(C)C)OC(=O)C2=C1CN(C(=O)NCc1ccccc1)CC2 [Compound 16, N-Benzyl-3,3-bis(2-methylpropyl)-1-oxo-1H,3H,4H,5H,6H,7H-furo[3,4-c]pyridine-5-carboxamide]	
500	CC(C)CC1(c2ccc3ccccc3c2)OC(=O)C2=C1CN(C(=O)NCc1ccccc1)CC2 (centres unmarked) [Compound 22, N-Benzyl-3-(2-methylpropyl)-3-(naphthalen-2-yl)-1-oxo-1H,3H,4H,5H,6H,7H-furo[3,4-c]pyridine-5-carboxamide]	
1500	CC(C)CC1(c2ccccc2O)OC(=O)C2=C1CN(C(=O)NCc1ccccc1)CC2 (centres unmarked) [Compound 23, N-Benzyl-3-(2-hydroxyphenyl)-3-(2-methylpropyl)-1-oxo-1H,3H,4H,5H,6H,7H-furo[3,4-c]pyridine-5-carboxamide]	
572	CC(C)CC1(c2ccccc2OCc2ccccc2)OC(=O)C2=C1CN(C(=O)NCc1ccccc1)CC2 (centres unmarked) [Compound 24, N-Benzyl-3-[2-(benzyloxy)phenyl]-3-(2-methylpropyl)-1-oxo-1H,3H,4H,5H,6H,7H-furo[3,4-c]pyridine-5-carboxamide]	
136	CC(C)CC1(c2cccc(Cl)c2)OC(=O)C2=C1CN(C(=O)NCc1ccccc1)CC2 (centres unmarked) [Compound 25, N-Benzyl-3-(3-chlorophenyl)-3-(2-methylpropyl)-1-oxo-1H,3H,4H,5H,6H,7H-furo[3,4-c]pyridine-5-carboxamide]	
238	CCCCNC(=O)N1CCC2=C(C1)C(CC(C)C)(c1ccccc1)OC2=O (centres unmarked) [Compound 26, N-Butyl-3-(2-methylpropyl)-1-oxo-3-phenyl-1H,3H,4H,5H,6H,7H-furo[3,4-c]pyridine-5-carboxamide]	NPSR antagonist activity in words (human NPSR-107I): reduction in potency
